This series is described as follows: physchem. To be noted: pH 7.

The pKa is the pH at which an ionisable group is half protonated. High values mean a group that holds its proton tightly, low ones a group that gives up its proton readily. Compound `COc1cc2nc(N3CCN(C)CC3)nc(NC3CCN(Cc4ccccc4)CC3)c2cc1OC` displayed a pKa of 5.6. Compound `COc1cc2nc(N3CCCCC3)nc(NC3CCN(Cc4ccccc4)CC3)c2cc1OC` returned a pKa of 7.47. The same measure for `COc1cc2nc(N3CCN(c4ccccn4)CC3)nc(NC3CCN(Cc4ccccc4)CC3)c2cc1OC`: 8.1. Next, `CN1CCCN(c2nc(NC3CCN(Cc4ccccc4)CC3)c3occc3n2)CC1`: 4.57; `CN1CCN(c2nc(NC3CCN(Cc4ccccc4)CC3)c3occc3n2)CC1`: 4.66. Next, `c1ccc(CN2CCC(Nc3nc(N4CCCCC4)nc4ccoc34)CC2)cc1`: 5.31; `c1ccc(CN2CCC(Nc3nc(N4CCN(c5ccccn5)CC4)nc4ccoc34)CC2)cc1`: 5.77; `CN1CCCN(c2nc(NC3CCN(Cc4ccccc4)CC3)c3sccc3n2)CC1`: 5.68. `CN1CCN(c2nc(NC3CCN(Cc4ccccc4)CC3)c3sccc3n2)CC1`: the pKa was 5.77. In turn, `c1ccc(CN2CCC(Nc3nc(N4CCCCC4)nc4ccsc34)CC2)cc1` registered a pKa of 6.42.

Take `c1ccc(CN2CCC(Nc3nc(N4CCN(c5ccccn5)CC4)nc4ccsc34)CC2)cc1`: the pKa turned out to be 6.88. Next, `CN1CCCN(c2nc(NC3CCN(Cc4ccccc4)CC3)c3ccsc3n2)CC1`: 3.28; `CN1CCN(c2nc(NC3CCN(Cc4ccccc4)CC3)c3ccsc3n2)CC1`: 3.35. The same measure for `c1ccc(CN2CCC(Nc3nc(N4CCCCC4)nc4sccc34)CC2)cc1`: 3.86. Next, `CN1CCCN(c2nc(NC3CCN(Cc4ccccc4)CC3)c3[nH]cnc3n2)CC1`: 3.15; `c1ccc(CN2CCC(Nc3nc(N4CCCCC4)nc4nc[nH]c34)CC2)cc1`: 3.73. Compound `CN1CCCN(c2nc3c(c(NC4CCN(Cc5ccccc5)CC4)n2)CCC3)CC1` came in with a pKa of 6.62. The same measure for `CN1CCN(c2nc(NC3CCN(Cc4ccccc4)CC3)c3cc4c(cc3n2)OCO4)CC1`: 5.58; for `c1ccc(CN2CCC(Nc3nc(N4CCCCC4)nc4cc5c(cc34)OCO5)CC2)cc1`: 7.45; for `c1ccc(CN2CCC(Nc3nc(N4CCN(c5ccccn5)CC4)nc4cc5c(cc34)OCO5)CC2)cc1`: 8.08. Next, `CN1CCCN(c2nc(NC3CCN(Cc4ccccc4)CC3)c3ccccc3n2)CC1`: 8.06; `CN1CCN(c2nc(NC3CCN(Cc4ccccc4)CC3)c3ccccc3n2)CC1`: 5.53.

Compound `c1ccc(CN2CCC(Nc3nc(N4CCCCC4)nc4ccccc34)CC2)cc1` came in with a pKa of 7.4. The same measure for `c1ccc(CN2CCC(Nc3nc(N4CCN(c5ccccn5)CC4)nc4ccccc34)CC2)cc1`: 8.03; for `COc1cc2nc(N3CCCN(C)CC3)cc(NC3CCN(Cc4ccccc4)CC3)c2cc1OC`: 10.6.

`COc1cc2nc(N3CCN(C)CC3)cc(NC3CCN(Cc4ccccc4)CC3)c2cc1OC`: the pKa is 9.84. As to `COc1cc2nc(N3CCCN(C)CC3)nc(NC3CCN(Cc4ccccc4)CC3)c2cc1OC`, the pKa came to 8.13.

The values are drawn from ChEMBL document CHEMBL3621101 (Medchemcomm, 2014).
